# Tests used:
# primary human T-cells = test: Proliferation assay (5 days, CellTiter-Glo, CD3-stimulated T-cells); type: cell-based; conditions: for Emax proliferation (% activation): CD3 condition, normalised to DMSO (neutral) and 20 μM reference compound A1 = 100%; for EC50: Homo sapiens, T-cell, 120 h, CD3-stimulated primary human T-cells, 5 days, CellTiter-Glo, fitted sigmoidal curve, read-out: Tcell Proliferation CD3 EC50
# Method in brief: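 Expanded primary human T-cells, 100 k cells/well, were stimulated with plate-coated CD3 antibody (donor-titrated) and given compound in a 5 or 6 pt dose response from 20 μM or 10 μM final top, 0.2% DMSO final. ATP was read by CellTiter-Glo after 5 days. EC50 and Emax were reported as % of 20 μM reference compound A1.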
# [1] = biological target: T1, DGKα (hDGKalpha(1-735)-N-His) (Homo sapiens, UniProt P23743); test: In vitro DGK inhibition assay, DGKalpha ADP Glo (in house); type: biochemical; conditions: 4 nM DGKα, 25 μM ATP, 125 uM DLG in liposomes, 1 hour reaction
# T1 construct: hDGKalpha(1-735)-N-His; His (N); made in house; host or cells: Sf21 insect cells (baculovirus)
# Method in brief: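 Full-length His-tagged human DGKα (4 nM) or DGKζ (2 nM), expressed in Sf21 cells, phosphorylated 125 µM DLG in PS/PC liposomes with ATP at 25 µM (α) or 50 µM (ζ) for 1 h. ADP was measured by ADP-Glo luminescence. Compounds were tested as 11-point 1:3 series in 2% DMSO.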
# T1 sequence (P23743 whole entry): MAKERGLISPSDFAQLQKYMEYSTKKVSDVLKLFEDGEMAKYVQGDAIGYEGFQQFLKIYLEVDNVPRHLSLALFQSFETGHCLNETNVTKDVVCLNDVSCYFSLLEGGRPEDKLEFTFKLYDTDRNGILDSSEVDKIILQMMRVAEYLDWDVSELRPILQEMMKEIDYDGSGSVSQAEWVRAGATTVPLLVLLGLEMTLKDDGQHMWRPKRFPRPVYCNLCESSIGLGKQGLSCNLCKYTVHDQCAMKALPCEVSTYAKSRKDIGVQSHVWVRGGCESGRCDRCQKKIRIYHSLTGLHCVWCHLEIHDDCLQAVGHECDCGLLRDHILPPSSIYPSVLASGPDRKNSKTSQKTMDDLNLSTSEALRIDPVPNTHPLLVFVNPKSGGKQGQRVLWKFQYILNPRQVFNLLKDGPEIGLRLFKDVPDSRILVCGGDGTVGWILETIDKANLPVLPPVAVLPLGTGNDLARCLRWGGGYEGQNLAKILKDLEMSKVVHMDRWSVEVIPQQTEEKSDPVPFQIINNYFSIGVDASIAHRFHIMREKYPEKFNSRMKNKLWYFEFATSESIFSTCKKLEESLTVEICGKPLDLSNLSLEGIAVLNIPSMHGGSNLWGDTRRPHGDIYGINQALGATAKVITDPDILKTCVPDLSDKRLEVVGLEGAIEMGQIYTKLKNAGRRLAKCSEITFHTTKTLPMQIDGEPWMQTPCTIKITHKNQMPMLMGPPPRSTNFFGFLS
IC50 [1] [nM],SMILES,Emax proliferation (% activation) (primary human T-cells),EC50 (primary human T-cells) [nM]
1990,"COC(=O)N1CC(c2nnc(-c3ccc4c(c3)N(Cc3ccc(-c5noc(C(C)(C)C)n5)cc3)C(=O)[C@@H](N)CS4(=O)=O)o2)CC(F)(F)C1 (stereo partly drawn) [Example 56, methyl 3,3-difluoro-5-[5-[(3R)-3-amino-5-[[4-(5-tert-butyl-1,2,4-oxadiazol-3-yl)phenyl]methyl]-1,1,4-trioxo-2,3-dihydro-1λ^6,5-benzothiazepin-7-yl]-1,3,4-oxadiazol-2-yl]piperidine-1-carboxylate]",425,2210
3340,"COC(=O)N1CC(c2nnc(-c3ccc4c(c3)N(Cc3ccc(-c5ccc(C(F)(F)F)cc5)nc3)C(=O)[C@@H](N)CS4(=O)=O)o2)CC(F)(F)C1 (stereo partly drawn) [Example 57, methyl 3,3-difluoro-5-[5-[(3R)-3-amino-1,1,4-trioxo-5-[[6-[4-(trifluoromethyl)phenyl]-3-pyridyl]methyl]-2,3-dihydro-1λ^6,5-benzothiazepin-7-yl]-1,3,4-oxadiazol-2-yl]piperidine-1-carboxylate]",181,567
> 19800,"N#CC1(c2nnc(-c3ccc4c(c3)N(Cc3ccc(-c5ccc(C(F)(F)F)cn5)cc3)C(=O)[C@@H](N)CS4(=O)=O)o2)CC1 [Example 62, 1-[5-[(3R)-3-amino-1,1,4-trioxo-5-[[4-[5-(trifluoromethyl)-2-pyridyl]phenyl]methyl]-2,3-dihydro-1λ^6,5-benzothiazepin-7-yl]-1,3,4-oxadiazol-2-yl]cyclopropane-carbonitrile]",101,1570
1960,"CCOC(F)(c1nnc(-c2ccc3c(c2)N(Cc2ccc(-c4noc(C(F)(F)F)n4)cc2)C(=O)[C@@H](N)CS3(=O)=O)o1)C(F)(F)F (stereo partly drawn) [Example 64, (3R)-3-amino-7-[5-(1-ethoxy-1,2,2,2-tetrafluoro-ethyl)-1,3,4-oxadiazol-2-yl]-1,1-dioxo-5-[[4-[5-(trifluoromethyl)-1,2,4-oxadiazol-3-yl]phenyl]methyl]-2,3-dihydro-1λ^6,5-benzothiazepin-4-one]",132,20.8
2640,"N[C@H]1CS(=O)(=O)c2ccc(-c3nnc(N4CCC(F)(F)CC4)o3)cc2N(Cc2ccc(-c3noc(C(F)(F)F)n3)cc2)C1=O [Example 68, (3R)-3-amino-7-[5-(4,4-difluoro-1-piperidyl)-1,3,4-oxadiazol-2-yl]-1,1-dioxo-5-[[4-[5-(trifluoromethyl)-1,2,4-oxadiazol-3-yl]phenyl]methyl]-2,3-dihydro-1λ^6,5-benzothiazepin-4-one]",104,26.1
11800,N[C@H]1CS(=O)(=O)c2ccc(-c3nnc(N4CCOC(F)(F)C4)o3)cc2N(Cc2ccc(-c3nnc(C(F)(F)F)o3)cc2)C1=O [Example 80],130,402
762,"CC(C)(C#N)c1nnc(-c2cc3c(cc2F)S(=O)(=O)C[C@H](N)C(=O)N3Cc2ccc(-c3ccc(C(F)(F)F)cn3)cc2)o1 [Example 88, 2-[5-[(3R)-3-amino-8-fluoro-1,1,4-trioxo-5-[[4-[5-(trifluoromethyl)-2-pyridyl]phenyl]methyl]-2,3-dihydro-1λ^6,5-benzothiazepin-7-yl]-1,3,4-oxadiazol-2-yl]-2-methyl-propanenitrile]",106,45.1
19000,CCC(O)(c1nnc(-c2ccc3c(c2)N(Cc2ccc(-c4noc(C(F)(F)F)n4)cc2)C(=O)[C@@H](N)CS3(=O)=O)o1)C(F)(F)F (stereo partly drawn) [Example 95],104,1640
24600,"CC(O)(c1nnc(-c2ccc3c(c2)N(Cc2ccc(-c4noc(C(F)(F)F)n4)cc2)C(=O)[C@@H](N)CS3(=O)=O)o1)C(F)(F)F (stereo partly drawn) [Example 96, (3R)-3-amino-1,1-dioxo-7-[5-(2,2,2-trifluoro-1-hydroxy-1-methyl-ethyl)-1,3,4-oxadiazol-2-yl]-5-[[4-[5-(trifluoromethyl)-1,2,4-oxadiazol-3-yl]phenyl]methyl]-2,3-dihydro-1λ^6,5-benzothiazepin-4-one]",103,174
25600,"CC(C)(C#N)c1nnc(-c2ccc3c(c2)N(Cc2ccc(-c4noc(C5CCC(F)(F)CC5)n4)cc2)C(=O)[C@@H](N)CS3(=O)=O)o1 [Example 101, 2-[5-[(3R)-3-amino-5-[[4-[5-(4,4-difluorocyclohexyl)-1,2,4-oxadiazol-3-yl]phenyl]methyl]-1,1,4-trioxo-2,3-dihydro-1λ^6,5-benzothiazepin-7-yl]-1,3,4-oxadiazol-2-yl]-2-methyl-propanenitrile]",175,552
1120,"CC(C)(C#N)c1nnc(-c2ccc3c(c2)N(Cc2ccc(-n4cc(C(F)(F)F)cn4)cc2)C(=O)[C@@H](N)CS3(=O)=O)o1 [Example 102, 2-[5-[(3R)-3-amino-1,1,4-trioxo-5-[[4-[4-(trifluoromethyl)pyrazol-1-yl]phenyl]methyl]-2,3-dihydro-1λ^6,5-benzothiazepin-7-yl]-1,3,4-oxadiazol-2-yl]-2-methyl-propanenitrile]",127,363

# Continued, compound first:
SMILES,IC50 [1] [nM],Emax proliferation (% activation) (primary human T-cells),EC50 (primary human T-cells) [nM]
"N[C@H]1CS(=O)(=O)c2ccc(-c3nnc(C4(CO)CCCO4)o3)cc2N(Cc2ccc(-c3noc(C(F)(F)F)n3)cc2)C1=O (stereo partly drawn) [Example 54, (3R)-3-amino-7-[5-[2-(hydroxymethyl)tetrahydrofuran-2-yl]-1,3,4-oxadiazol-2-yl]-1,1-dioxo-5-[[4-[5-(trifluoromethyl)-1,2,4-oxadiazol-3-yl]phenyl]methyl]-2,3-dihydro-1λ^6,5-benzothiazepin-4-one]",12600,94,892
"COC(=O)N1CC2CC(c3nnc(-c4ccc5c(c4)N(Cc4ccc(-c6ccc(C(F)(F)F)cc6)nc4)C(=O)[C@@H](N)CS5(=O)=O)o3)(C2)C1 [Example 58, methyl 1-[5-[(3R)-3-amino-1,1,4-trioxo-5-[[6-[4-(trifluoromethyl)phenyl]-3-pyridyl]methyl]-2,3-dihydro-1λ^6,5-benzothiazepin-7-yl]-1,3,4-oxadiazol-2-yl]-3-azabicyclo[3.1.1]heptane-3-carboxylate]",26400,114,531
"CC(C)(C)c1nnc(-c2ccc3c(c2)N(Cc2ccc(-n4nnc(C(F)(F)F)n4)cc2)C(=O)[C@@H](N)CS3(=O)=O)o1 [Example 90, (3R)-3-amino-7-(5-tert-butyl-1,3,4-oxadiazol-2-yl)-1,1-dioxo-5-[[4-[5-(trifluoromethyl)tetrazol-2-yl]phenyl]methyl]-2,3-dihydro-1λ^6,5-benzothiazepin-4-one]",23900,152,344
Cn1nc(C(F)(F)F)cc1-c1ccc(CN2C(=O)[C@@H](N)CS(=O)(=O)c3ccc(-c4nnc(C(C)(C)C)o4)cc32)cc1 [Example 92],17500,170,835
"CC(C)(C)c1nnc(-c2ccc3c(c2)N(Cc2ccc(-c4ncc(C(F)(F)F)o4)cc2)C(=O)[C@@H](N)CS3(=O)=O)o1 [Example 93, (3R)-3-amino-7-(5-tert-butyl-1,3,4-oxadiazol-2-yl)-1,1-dioxo-5-[[4-[5-(trifluoromethyl)oxazol-2-yl]phenyl]methyl]-2,3-dihydro-1λ^6,5-benzothiazepin-4-one]",884,104,120
NC(c1nnc(-c2ccc3c(c2)N(Cc2ccc(-c4noc(C(F)(F)F)n4)cc2)C(=O)[C@@H](N)CS3(=O)=O)o1)C(F)(F)F (stereo partly drawn) [Example 94],> 60000,42,> 10000
CC(C)(C#N)c1nnc(-c2ccc3c(c2)N(Cc2ccc(-c4cnc(C(F)(F)F)nc4)cc2)C(=O)[C@@H](N)CS3(=O)=O)o1 [Example 100],> 62500,96,1900
"CC(C)(C#N)c1nnc(-c2ccc3c(c2)N(Cc2ccc(-c4ncc(C(F)(F)F)o4)cc2)C(=O)[C@@H](N)CS3(=O)=O)o1 [Example 105, 2-[5-[(3R)-3-amino-1,1,4-trioxo-5-[[4-[5-(trifluoromethyl)oxazol-2-yl]phenyl]methyl]-2,3-dihydro-1λ^6,5-benzothiazepin-7-yl]-1,3,4-oxadiazol-2-yl]-2-methyl-propanenitrile]",694,138,391
CC(C)(C#N)c1nnc(-c2ccc3c(c2)N(Cc2ccc(-c4ccc(C(F)(F)F)cc4)nc2)C(=O)[C@@H](N)CS3(=O)=O)o1 [Example 106],14400,79,3790
